Target: deoxycytidine kinase (dCK) (Homo sapiens, UniProt P27707)
Assay: HTS hit
Assay type: cell-based

IC50: 1400 nM
SMILES: COc1ccc(Br)cc1-c1nc(CSc2nc(N)cc(N)n2)cs1 [DI-0120]

— publication PMC3949575 (The Journal of Experimental Medicine, 2014)
